Laboratory results published in ChEMBL document CHEMBL1127156, “m-Alkyl, ,,-trifluoroacetophenones: A new class of potent transition state analog inhibitors of acetylcholinesterase” (Bioorg Med Chem Lett, 1993).

target: Acetylcholinesterase (Torpedo californica, UniProt P04058); experiment: Tested for the ability to inhibit Acetylcholinesterase (AChE) from Torpedo californica; parameters: species or system Tetronarce californica
Sequence (P04058 whole entry): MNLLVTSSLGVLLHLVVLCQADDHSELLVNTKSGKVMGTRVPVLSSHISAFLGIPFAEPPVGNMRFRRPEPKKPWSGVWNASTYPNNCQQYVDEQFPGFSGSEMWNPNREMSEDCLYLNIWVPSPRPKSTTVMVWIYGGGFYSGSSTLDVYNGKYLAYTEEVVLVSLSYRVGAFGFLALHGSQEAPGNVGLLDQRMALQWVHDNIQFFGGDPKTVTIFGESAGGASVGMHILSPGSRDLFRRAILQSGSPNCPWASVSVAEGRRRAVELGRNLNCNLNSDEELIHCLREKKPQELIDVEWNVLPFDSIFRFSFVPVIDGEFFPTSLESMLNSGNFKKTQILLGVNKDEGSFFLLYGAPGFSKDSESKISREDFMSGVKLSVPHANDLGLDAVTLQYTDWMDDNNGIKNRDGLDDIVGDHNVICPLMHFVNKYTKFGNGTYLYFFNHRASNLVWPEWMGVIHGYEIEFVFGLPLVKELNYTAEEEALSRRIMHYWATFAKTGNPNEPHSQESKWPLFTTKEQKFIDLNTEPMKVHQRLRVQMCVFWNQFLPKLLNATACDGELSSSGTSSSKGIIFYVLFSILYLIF

| Compound | Ki [nM] |
| --- | --- |
| CC(C)c1cccc(C(=O)C(F)(F)F)c1 | 0.0085 |
| CCc1cccc(C(=O)C(F)(F)F)c1 | 0.39 |
| Cc1cccc(C(=O)C(F)(F)F)c1 | 2.4 |
| CC(C)(C)c1cccc(C(=O)C(F)(F)F)c1 | 0.0037 |
| O=C(c1cccc(C(F)(F)F)c1)C(F)(F)F | 0.39 |
